What was measured:
[1] = tested on: Mosquitoes: Aedes aegypti, Anopheles quadramaculatus; assay: Insecticide testing on filter paper: knock-down and killing effect (Table 5); format: in vivo; settings: for Lowest Concentration With Killing Effect / Lowest Concentration for Knockdown: concentration of acetone solution, 1 ml on filter paper
Description: (§1) • I. Insecticide Testing Insects: Mosquitoes Species: Aedes aegypti, Anopheles quadramaculatus The mosquitoes were bred under controlled conditions (humidity, temperature and nutrition) at White Sands Research center. Test room temperature: approximately 70 F (average) Test room humidity: between 50% and 70% (average) Procedure: The test compounds were dissolved in HPLC grade acetone at the appropriate concentrations. One ml of the solution was applied with a disposable 1 ml syringe on filter paper (Whatman 541, 9.0 cm diameter). After evaporatin of the acetone, the filter paper was placed in a Petri dish (diameter also about 9.0 cm) with alid. […] The mosquitoes (not less than 5 or more than 20) were transferred in the dish through a hole in the lid. The lid was stopped up with a cotton ball wrapped in filter paper and soaked in sugar water. Two dishes with control insects - the filter paper was treated with 1 ml pure acetone - were observed. Readings were taken 3 to 4 times during the first hour, thereafter every hour. […] "Down" (D) = mosquitoes are disabled to fly, lay on their back or side. "Dead" = mosquitoes are completely moveless (e.g. no movement of body, legs or wints). these criteria can be considered as very strict. • II. Bioaccumulation Tests in Rats Species: Sprague Dawley and Fisher Rats Sex: Female Age/Weight: Young rats (average weight between 130 and 180 grams) Procedure: The animals were housed in stainless steel metabolism cages in a temperature controlled animal room. They were quarantined for at least 6 days before being placed on the study. Three rats were taken for each test compound (see appendix for dose levels). Each animal was dosed on five consecutive days by oral gavage. The test compound was dissolved or suspended in 0.5% carboxy methyl cellulose solution or corn oil (Mazola). After 14 days the rats were sacrificed by CO2. Samples of fat (abdominal) liver, kidneys, brain and muscle (leg) were removed and extracted for analysis. The fat of each rat was analyzed separately with regard to the individual total dose. The other organs of all three rats were combined and analyzed with regard to the total dose being applied to all three rats. The analysis was done by gas chromatography under ECD (electron capture detector) detection.

[2] = Bioaccumulation tests in rats; format: in vivo, Sprague Dawley and Fisher Rats; settings: female rats, oral gavage on five consecutive days, sacrificed after 14 days, tissue analysis by GC-ECD with regard to total dose
Description: as §1

Aedes aegypti = assay: Filter paper test for insecticidal activity against mosquitoes (Table 3); format: in vivo; settings: for 100 % kill: time after which 100% of the mosquitoes were killed
Description: The experimental design of the test for activity against mosquitoes is as follows.
[…] The filter paper was then placed in a petri dish and 10-20 mosquitoes (Aedes aegypti) added. The effect of the chemical on the mosquitoes (flying activity, mortality) was observed and recorded for up to 72 hours. Generally the experiments were in triplicate, the parent cyclodiene and its dechlorinated derivative were tested and compared to the control; the filter paper of the control was treated with acetone only. A total of 9 pairs of chemicals (parent cyclodiene and dechlorinated derivative) and CIC-134 were tested according to the procedure above.

[3] = tested on: Ctenocephalides felis (Cat fleas); assay: Contact test at 1% concentration; format: in vivo
[4] = tested on: Cimex lectularius (Bed bugs); assay: Contact test at 1% concentration; format: in vivo
[5] = tested on: Sitophilus Oryza (Rice Weevil); assay: Contact test at 1% concentration; format: in vivo
[6] = tested on: Acheta domestica (Crickets); assay: Contact test at 1% concentration; format: in vivo
Pediculus humanus (Lice) = assay: Contact test at 1% concentration; format: in vivo
[7] = tested on: Blatella germanica (German cockroach); assay: Contact test at 1% concentration; format: in vivo
Maize Weevil = assay: Contact test at 1% concentration; format: in vivo
Grainery Weevil = assay: Contact test at 1% concentration; format: in vivo
[8] = tested on: Mosca domestica (House fly); assay: Contact test at 1% concentration; format: in vivo
[9] = tested on: Tenebrio molitor (Greater Meal Worm); assay: Contact test at 1% concentration; format: in vivo
[10] = 1% solution in acetone, 1 ml on filter paper, time after which 100% of the mosquitoes were affected (dead, lying down, wobbly, erratic)
[11] = 1% solution in acetone, 1 ml on filter paper

Molecule | Lowest Concentration With Killing Effect [1] | Lowest Concentration for Knockdown [1] | Bioaccumulation in Rats [2] | 100% effect (Aedes aegypti; [10]) | 100 % kill (Aedes aegypti; [11]) | other results
CC1CC2(Cl)CCC1(Cl)C2(Cl)Cl (stereo not shown) [CIC-151, 1,4,7,7-tetrachloro-2-methyl-norbornane] | 0.50% | 0.5% | 0.01% | – | – | down ([1]; 0.5%, time not given): 73%; mortality at 0.5 % ([1]; read-out: dead): 73%; 100% effect (Aedes aegypti; 0.5% solution in acetone on filter paper, time after which 100% of the mosquitoes were affected): 0.16 h; 100 % kill (Aedes aegypti; 0.5% solution in acetone on filter paper): 12 h
ClC12C=CC(Cl)(CC1)C2(Cl)Cl [CIC-142, 1,4,7,7-tetrachloronorbon-2-ene] | 0.3% | 0.75% | 1.24% | 0.25 h | 3 h | insecticidal effect in contact test [3]: effective insecticides; insecticidal effect in contact test [4]: effective insecticides; insecticidal effect in contact test [5]: effective insecticides; insecticidal effect in contact test [6]: only mildly effective; insecticidal effect in contact test (Pediculus humanus (Lice)): effective insecticides; insecticidal effect in contact test [7]: effective insecticides; down ([1]; 0.75%, after 4 minutes): 37%; insecticidal effect in contact test (Maize Weevil): effective insecticides; insecticidal effect in contact test (Grainery Weevil): no effect; insecticidal effect in contact test [8]: effective insecticides; insecticidal effect in contact test [9]: effective insecticides
Cl[C@@H]1[C@H](Cl)[C@]2(Cl)CC[C@@]1(Cl)C2 [CIC-145, 1,2-endo,3-endo,4-tetrachloronorbornane] | 0.04% | 0.08% | >> 0.01% | 0.08 h | 3 h | insecticidal effect in contact test [3]: effective insecticides; insecticidal effect in contact test [4]: effective insecticides; insecticidal effect in contact test [5]: effective insecticides; insecticidal effect in contact test [6]: effective insecticides; insecticidal effect in contact test (Pediculus humanus (Lice)): effective insecticides; insecticidal effect in contact test [7]: effective insecticides; mortality at 0.04 % ([1]; 0.04%, after 5 hours, read-out: dead): 62%; down ([1]; 0.08%, after 5 minutes): 63%; insecticidal effect in contact test (Maize Weevil): effective insecticides; insecticidal effect in contact test (Grainery Weevil): effective insecticides; insecticidal effect in contact test [8]: effective insecticides; insecticidal effect in contact test [9]: effective insecticides
1,4,7,7-Tetrachloro-bicyclo [2.2.1]-heptane epoxide [CIC-150] | 0.5% | – | – | 4 h | 23 h | dead ([1]; 0.5%, after 7 hours): 27%
1,2-endo,3-endo,4,7-anti-pentachlronorbornane [CIC-148] | 0.015% | 0.06% | ~1.30% (estimate value) | 0.08 h | 6 h | dead ([1]; 0.015%, after 5 hours): 60%; down ([1]; 0.06%, time not given): 80%
1,2-endo,3-endo,4,7-syn-pentachloronorbornane [CIC-144] | 0.06% | 0.06% | 0.01% | 0.08 h | 23 h | dead ([1]; 0.06%, after 22 hours): 79%; down ([1]; 0.06%, time not given): 55%
Cl[C@@H]1C[C@]2(Cl)CC[C@@]1(Cl)C2(Cl)Cl [CIC-141, 1,2-endo,4,7,7-pentachloronorbornane] | 0.125% | 0.5% | – | 0.25 h | 10 h | down ([1]; 0.5%, 5 minutes): 38%
1,4,7,7-Tetrachloro-bicyclo- [2.2.1]-heptane-poxide (less) [CIC-149] | 0.063% | 0.5% | – | 0.33 h | 9 h | dead ([1]; 0.063%, after 6 hours): 67%; down ([1]; 0.5%, after 10 minutes): 36%; Knock-down, remark in words ([1]; in vivo): Not very fast knock-down
Cl[C@H]1[C@H](Cl)[C@@]2(Cl)CC[C@]1(Cl)C2(Cl)Cl [CIC-146, 1,2-exo,3-endo,4,7,7-hexachloronorbornane] | > 1% | – | – | 3 h | 24 h | –
1,2,3,4,5-endo,6-endo,7-syn-heptachoronorborn-2-ene [CIC-143] | – | – | – | 2 h | 23 h | –
ClC1=CC2(Cl)CCC1(Cl)C2(Cl)Cl (stereo not shown) [CIC-147, 1,2,4,7,7-pentachloronorborn-2-ene] | 0.125% | 0.125% | 1.04% | 0.08 h | 9 h | down ([1]; 0.125%, 10 minutes): 63%; mortality at 0.125 % ([1]; 1.5 h, read-out: dead): 50%
